Source: US20240269238A1, “Therapeutic Regimens and Methods for Reducing Body Weight in a Subject with Fatty Liver Disease using a GLP-1R and GCGR Agonist” (Spitfire Pharma LLC, priority 2022, published 2024)

Experiments:
Assay type in all cases: in vivo, human
[1] = test system: Iron-corrected T1 (cT1); assay: Phase 1 12-week NAFLD study (Example 1): iron-corrected T1 (cT1) responder analysis; conditions: week 12
Excerpt: Provided herein is disclosure of a Phase 1, multicenter, randomized, double-blind, placebo-controlled study to assess the effects of Pemvidutide (also termed herein as ALT-801), the safety of Pemvidutide and effects on hepatic fat fraction, anthropometric parameters, lipid metabolism, inflammatory markers and fibrosis markers in diabetic and non-diabetic (type 2 diabetes) overweight and obese (BMI 28.0 kg/m^2) subjects with NAFLD. This study was designed to assess changes in hepatic fat fraction by MRI-PDFF (magnetic resonance imaging-proton density fat fraction) in diabetic and non-diabetic overweight and obese subjects with NAFLD after 12 weeks of ALT-801 treatment. The trial was conducted without adjunctive diet and exercise interventions. The study assessed changes in body weight, lipid metabolism, metabolic markers, and inflammatory markers and safety and tolerability of ALT-801 after 12 weeks of treatment. Subjects were stratified for the presence or absence of diabetes at baseline. Fibroscan and cT1 assessments evaluated changes in liver inflammatory and fibrotic activity at the end of 12 weeks of treatment.
The study, described in this example, was carried out in 94 subjects overweight and obese (body mass index [BMI] ≥28.0 kg/m^2) Type 2 diabetic and non-diabetic subjects with nonalcoholic fatty liver disease (NAFLD) over about 4.5 months, including up to a 35-day screening period, and 85-day treatment period and a 25-day follow-up period, with treatment with ALT-801 (a composition comprising SEQ ID NO.: 1, “study medication”) or placebo administered by subcutaneous (SC) injection once weekly for up to twelve (12) doses.
After providing informed consent, subjects underwent a screening period of up to 35 days. Subjects were instructed on how to maintain their normal diets, alcohol consumption and physical activities and not to start any new diets, supplements, or exercise programs at any time while participating in the study. […]

[2] = test system: alanine aminotransferase (ALT) and corrected T1 (cT1); assay: Phase 1b 24-week NAFLD study (Example 3): liver inflammation by ALT levels and cT1 imaging; conditions: all doses, week 24
Excerpt: Provided herein is disclosure of a 12-week extension study of the study provided in Example 1, providing a 24-week a Phase 1b, randomized, double-blind, placebo-controlled study to assess the effects of pemvidutide (also termed herein as ALT-801), the safety of pemvidutide and effects on weight loss, hepatic fat fraction, anthropometric parameters, lipid metabolism, as well as inflammatory, fibrosis and other markers in diabetic and non-diabetic (type 2 diabetes) overweight and obese (BMI≥28.0 kg/m^2) subjects with NAFLD (defined as liver fat content (LFC) by MRI-PDFF ≥10%; absence of significant fibrosis, defined as FibroScan® LSM ≤10 kPa), alanine aminotransferase (ALT) and aspartate aminotransferase (AST) laboratory values of ≤75 IU/L and HbA1c <9.5. Men and women aged 18-65 years were studied. […]
The primary endpoint of this study was a reduction in liver fat content (LFC) by MRI-PDFF at Week 24 compared to Week 0 (zero). […] Adverse events (AEs), including serious and severe AEs, AEs leading to discontinuation, GI tolerability, vital signs, and glycemic control including fasting glucose and HbA1c levels were also measured. […]

[3] = Phase 1b 24-week NAFLD study (Example 3): safety; conditions: for serious and severe AE observed: unrelated to study medication
Excerpt: Provided herein is disclosure of a 12-week extension study of the study provided in Example 1, providing a 24-week a Phase 1b, randomized, double-blind, placebo-controlled study to assess the effects of pemvidutide (also termed herein as ALT-801), the safety of pemvidutide and effects on weight loss, hepatic fat fraction, anthropometric parameters, lipid metabolism, as well as inflammatory, fibrosis and other markers in diabetic and non-diabetic (type 2 diabetes) overweight and obese (BMI≥28.0 kg/m^2) subjects with NAFLD (defined as liver fat content (LFC) by MRI-PDFF ≥10%; absence of significant fibrosis, defined as FibroScan® LSM ≤10 kPa), alanine aminotransferase (ALT) and aspartate aminotransferase (AST) laboratory values of ≤75 IU/L and HbA1c <9.5. Men and women aged 18-65 years were studied. Diabetic subjects were defined as those that have undergone stable dose (≥3 months) metformin or SLGT-2 therapy and no use of insulin, sulfonylureas, DPP-4, GLP-1 treatment; Ninety-four (94) subjects were enrolled in the initial 12-week Phase 1b NAFLD trial and 83 subjects who completed were invited to receive a total of 12 additional weeks of blinded treatment. Of those subjects, 66 consented to rollover, of which 64 were eligible to participate.
The primary endpoint of this study was a reduction in liver fat content (LFC) by MRI-PDFF at Week 24 compared to Week 0 (zero). Key secondary endpoints include percent (%) weight loss at Week 24 compared to Week 0 (zero), and liver inflammation by alanine aminotransferase (ALT) levels and corrected T1 (cT1) imaging at Week 24 as compared to Week 0 (zero). Adverse events (AEs), including serious and severe AEs, AEs leading to discontinuation, GI tolerability, vital signs, and glycemic control including fasting glucose and HbA1c levels were also measured.

## CC[C@H](C)[C@H](NC(=O)[C@H](Cc1ccccc1)NC(=O)[C@H](CCC(=O)O)NC(=O)[C@@H]1CCCCNC(=O)CC[C@H](NC(=O)[C@H](CC(=O)O)NC(=O)[C@H](CC(C)C)NC(=O)[C@H](Cc2ccc(O)cc2)NC(=O)[C@H](CCCCN)NC(=O)[C@H](CO)NC(=O)[C@H](Cc2ccc(O)cc2)NC(=O)[C@H](CC(=O)O)NC(=O)[C@H](CO)NC(=O)[C@@H](NC(=O)[C@H](Cc2ccccc2)NC(=O)[C@@H](NC(=O)CNC(=O)[C@H](CCC(N)=O)NC(=O)C(C)(C)NC(=O)[C@@H](N)Cc2c[nH]cn2)[C@@H](C)O)[C@H](C)O)C(=O)N[C@@H](CCCCNC(=O)C2O[C@@H](OCCCCCCCCCCCCCCCCCC(=O)O)C(O)C(O)[C@@H]2O)C(=O)N[C@@H](C)C(=O)N[C@@H](C)C(=O)N1)C(=O)N[C@@H](CCC(N)=O)C(=O)N[C@@H](Cc1c[nH]c2ccccc12)C(=O)N[C@@H](CC(C)C)C(=O)N[C@@H](CC(C)C)C(=O)N[C@@H](CCC(N)=O)C(=O)N[C@H](C(N)=O)[C@@H](C)O (stereo partly drawn) [ALT-801, Pemvidutide]
[1]; 1.2 mg
  proportion of subjects showing >=80 ms for Iron-corrected T1 (cT1): 87.5%
[1]; 1.8 mg
  proportion of subjects showing >=80 ms for Iron-corrected T1 (cT1): 83.3%
[1]; 2.4 mg
  proportion of subjects showing >=80 ms for Iron-corrected T1 (cT1): 85.7%
[2]
  ALT levels: robust reduction of ALT levels
  cT1 response (80 ms reduction vs baseline): high rates of cT1 response
[3]; 1.2 mg
  serious and severe AE observed: Salmonella infection
[3]; 1.8 mg
  serious and severe AE observed: hypertension >3 weeks post last dose of study medication
[3]; 24 weeks
  number of adverse events leading to treatment discontinuation: low across the treatment group
  overall safety and tolerability: safe and tolerable
  severity of gastrointestinal-related adverse events (nausea, vomiting, diarrhea, constipation): mild to moderate
  significant ALT elevations: No significant ALT elevations were reported
[3]; treatment groups, 24 weeks
  number of serious or severe adverse events: low and comparable to the placebo group
